In brackets after ≈: the same amount, converted by molar mass.
Columns and labels:
[1] = system: Staphylococcus aureus (Isolate ID ATCC 29213); assay: Antibacterial activity, MIC, S. aureus; assay type: cell-based; details: Staphylococcus aureus, ATCC29213, Gram positive strain; broth microdilution or agar dilution
In short: (§1)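 CLSI-guided dilution susceptibility testing (broth or agar) gave the MIC for each strain.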

physchem = details: pH 7.4, aqueous buffer, kinetic from dmso stock
In short: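 DMSO doubling dilutions were diluted twenty-fold into 100 mM citrate (pH 4), PBS (pH 7.4) or carbonate-bicarbonate (pH 9). After 24 h equilibration at room temperature, absorbance was read at 620 nm. The reported value is the highest concentration without measurable precipitate.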

[2] = system: Haemophilus influenzae (Isolate ID ATCC 49247); assay: Antibacterial activity, MIC, H. influenzae; assay type: cell-based; details: Haemophilus influenzae, ATCC49247; Gram negative strain; broth microdilution or agar dilution
In short: as §1

[3] = system: Enterococcus faecalis (Isolate ID ATCC 29212); assay: Antibacterial activity, MIC, E. faecalis; assay type: cell-based; details: Enterococcus faecalis, ATCC29212; Gram positive strain; broth microdilution or agar dilution
In short: as §1

[4] = system: Streptococcus pyogenes (Isolate ID ATCC 51339); assay: Antibacterial activity, MIC, S. pyogenes; assay type: cell-based; details: Streptococcus pyogenes, ATCC51339, Gram positive strain; broth microdilution or agar dilution
In short: as §1

[5] = Solubility Range (maximum solubility)

**Q.** For CCNC(=O)Nc1nc2cc(-c3cnc(N4CCC(F)(C(=O)O)CC4)nc3)cc(-c3ccccn3)c2s1 [Compound 135], which MIC [1] is on record?
**A.** 1 to 16 µg/mL (≈ 1.92 to 30.7 µM)

**Q.** What about the solubility at 24 h (physchem; Solubility (pH 7.4)) of the same molecule?
**A.** 400 µg/mL (≈ 767 µM)

**Q.** What about the solubility at 24 h (physchem; Solubility Range) of the same molecule?
**A.** 400 to 800 µg/mL (≈ 767 to 1530 µM)

**Q.** What about the MIC [2] of the same molecule?
**A.** 1 to 16 µg/mL (≈ 1.92 to 30.7 µM)

**Q.** And the MIC [3]?
**A.** ≤ 0.25 µg/mL

**Q.** What about the MIC [4] of the same molecule?
**A.** ≤ 0.25 µg/mL

**Q.** What does the source list for CCNC(=O)Nc1nc2cc(-c3cnc(N4CCC(C(=O)O)(C(C)C)CC4)nc3)cc(-c3ccccn3)c2s1 [Compound 137]?
**A.** MIC [1]: ≤ 0.25 µg/mL; solubility at 24 h (physchem; Solubility (pH 7.4)): 400 µg/mL (≈ 733 µM); solubility at 24 h (physchem; Solubility Range): 400 to 800 µg/mL (≈ 733 to 1470 µM); MIC [2]: 1 to 16 µg/mL (≈ 1.83 to 29.3 µM); MIC [3]: ≤ 0.25 µg/mL; MIC [4]: ≤ 0.25 µg/mL

**Q.** Which MIC [1] does the source give for CCNC(=O)Nc1nc2cc(-c3cnc(N4CCC(SC)(C(=O)O)CC4)nc3)cc(-c3ccccn3)c2s1 [Compound 138] here?
**A.** ≤ 0.25 µg/mL

**Q.** What about the solubility at 24 h (physchem; Solubility (pH 7.4)) of the same molecule?
**A.** ≥ 800 µg/mL

**Q.** What about the solubility at 24 h (physchem; Solubility Range) of the same molecule?
**A.** > 800 µg/mL

**Q.** And the MIC [2]?
**A.** 1 to 16 µg/mL (≈ 1.82 to 29.1 µM)

**Q.** And the MIC [3]?
**A.** ≤ 0.25 µg/mL

**Q.** What about the MIC [4] of the same molecule?
**A.** ≤ 0.25 µg/mL

**Q.** For C=CCC1(C(=O)O)CCN(c2ncc(-c3cc(-c4cnccn4)c4sc(NC(=O)NCC)nc4c3)cn2)CC1 [Compound 139, 4-allyl-1-[5-[2-(ethylcarbamoylamino)-7-pyrazin-2-yl-1,3-benzothiazol-5-yl]pyrimidin-2-yl]piperidine-4-carboxylic acid], which MIC [1] is on record?
**A.** ≤ 0.25 µg/mL

**Q.** What about the solubility at 24 h (physchem; Solubility (pH 7.4)) of the same molecule?
**A.** ≥ 800 µg/mL

**Q.** What about the solubility at 24 h (physchem; Solubility Range) of the same molecule?
**A.** > 800 µg/mL

**Q.** And the MIC [2]?
**A.** 1 to 16 µg/mL (≈ 1.84 to 29.4 µM)

**Q.** And the MIC [3]?
**A.** ≤ 0.25 µg/mL

**Q.** What about the MIC [4] of the same molecule?
**A.** ≤ 0.25 µg/mL

**Q.** Which results are given for CCNC(=O)Nc1nc2cc(-c3cnc(N4CCC(CC(F)(F)F)(C(=O)O)CC4)nc3)cc(-c3ccccn3)c2s1 [Compound 140]?
**A.** MIC [1]: 0.25 to 1 µg/mL (≈ 0.427 to 1.71 µM); solubility at 24 h (physchem; Max Solubility): ≥ 800 µg/mL; solubility at 24 h (physchem; Solubility (pH 7.4)): ≥ 800 µg/mL; solubility at 24 h (physchem; Solubility Range): > 800 µg/mL; solubility at 24 h (physchem; [5]): > 800 µg/mL; MIC [2]: 1 to 16 µg/mL (≈ 1.71 to 27.3 µM); MIC [3]: ≤ 0.25 µg/mL; MIC [4]: ≤ 0.25 µg/mL

**Q.** With CCNC(=O)Nc1nc2cc(-c3cnc(N4CCC(C(=O)O)(C(F)(F)F)CC4)nc3)cc(-c3ccccn3)c2s1 [Compound 142, 1-[5-[2-(ethylcarbamoylamino)-7-(2-pyridyl)-1,3-benzothiazol-5-yl]pyrimidin-2-yl]-4-(trifluoromethyl)piperidine-4-carboxylic acid] as the molecule, how does the MIC [1] read?
**A.** 1 to 16 µg/mL (≈ 1.75 to 28 µM)

**Q.** What about the solubility at 24 h (physchem; Max Solubility) of the same molecule?
**A.** ≥ 800 µg/mL

**Q.** And the solubility at 24 h (physchem; Solubility (pH 7.4))?
**A.** ≥ 800 µg/mL

**Q.** What about the solubility at 24 h (physchem; Solubility Range) of the same molecule?
**A.** > 800 µg/mL

**Q.** And the solubility at 24 h (physchem; [5])?
**A.** > 800 µg/mL

**Q.** What about the MIC [2] of the same molecule?
**A.** 1 to 16 µg/mL (≈ 1.75 to 28 µM)

**Q.** And the MIC [3]?
**A.** ≤ 0.25 µg/mL

**Q.** And the MIC [4]?
**A.** ≤ 0.25 µg/mL

**Q.** What does the source list for CCNC(=O)Nc1nc2cc(-c3cnc(N4CCC(C)(C(=O)O)CC4)nc3)cc(C#Cc3cncn3C)c2s1 [Compound 144, 1-[5-[2-(ethylcarbamoylamino)-7-[2-(3-methylimidazol-4-yl)ethynyl]-1,3-benzothiazol-5-yl]pyrimidin-2-yl]-4-methyl-piperidine-4-carboxylic acid]?
**A.** MIC [1]: 0.25 to 1 µg/mL (≈ 0.459 to 1.84 µM); solubility at 24 h (physchem; Solubility (pH 7.4)): 400 µg/mL (≈ 734 µM); solubility at 24 h (physchem; Solubility Range): 400 to 800 µg/mL (≈ 734 to 1470 µM); MIC [2]: 0.25 to 1 µg/mL (≈ 0.459 to 1.84 µM); MIC [3]: ≤ 0.25 µg/mL; MIC [4]: ≤ 0.25 µg/mL

**Q.** With CCNC(=O)Nc1nc2cc(-c3cnc(N4CCC(C)(C(=O)O)CC4)nc3)cc(C(=O)Nc3nccs3)c2s1 [Compound 145, 1-[5-[2-(ethylcarbamoylamino)-7-(thiazol-2-ylcarbamoyl)-1,3-benzothiazol-5-yl]pyrimidin-2-yl]-4-methyl-piperidine-4-carboxylic acid] as the molecule, how does the MIC [1] read?
**A.** > 16 µg/mL

**Q.** And the solubility at 24 h (physchem; Solubility (pH 7.4))?
**A.** ≥ 800 µg/mL

**Q.** What about the solubility at 24 h (physchem; Solubility Range) of the same molecule?
**A.** > 800 µg/mL

**Q.** What about the MIC [2] of the same molecule?
**A.** > 16 µg/mL

**Q.** What about the MIC [3] of the same molecule?
**A.** 0.25 to 1 µg/mL (≈ 0.441 to 1.76 µM)

**Q.** And the MIC [4]?
**A.** 1 to 16 µg/mL (≈ 1.76 to 28.2 µM)

**Q.** For CCNC(=O)Nc1nc2cc(-c3cnc(N4CCC(C)(C(=O)O)CC4)nc3)cc(NC(=O)c3ncccn3)c2s1 [Compound 146, 1-[5-[2-(ethylcarbamoylamino)-7-(pyrimidine-2-carbonylamino)-1,3-benzothiazol-5-yl]pyrimidin-2-yl]-4-methyl-piperidine-4-carboxylic acid], which MIC [1] is on record?
**A.** > 16 µg/mL

**Q.** And the solubility at 24 h (physchem; Solubility (pH 7.4))?
**A.** 50 µg/mL (≈ 89 µM)

**Q.** What about the solubility at 24 h (physchem; Solubility Range) of the same molecule?
**A.** 12.5 to 400 µg/mL (≈ 22.3 to 712 µM)

**Q.** And the MIC [2]?
**A.** > 16 µg/mL

**Q.** And the MIC [3]?
**A.** > 16 µg/mL

**Q.** And the MIC [4]?
**A.** > 16 µg/mL

**Q.** For CCNC(=O)Nc1nc2cc(-c3cnc(N4CCC(C)(C(=O)O)CC4)nc3)cc(CN(C)c3ncccn3)c2s1 [Compound 147, 1-[5-[2-(ethylcarbamoylamino)-7-[[methyl(pyrimidin-2-yl)amino]methyl]-1,3-benzothiazol-5-yl]pyrimidin-2-yl]-4-methyl-piperidine-4-carboxylic acid], which MIC [1] is on record?
**A.** 1 to 16 µg/mL (≈ 1.78 to 28.5 µM)

**Q.** And the solubility at 24 h (physchem; Solubility (pH 7.4))?
**A.** ≥ 800 µg/mL

**Q.** And the solubility at 24 h (physchem; Solubility Range)?
**A.** > 800 µg/mL

**Q.** What about the MIC [2] of the same molecule?
**A.** 1 to 16 µg/mL (≈ 1.78 to 28.5 µM)

**Q.** And the MIC [3]?
**A.** ≤ 0.25 µg/mL

**Q.** And the MIC [4]?
**A.** 0.25 to 1 µg/mL (≈ 0.445 to 1.78 µM)

**Q.** Which MIC [1] does the source give for CCNC(=O)Nc1nc2cc(-c3cnc(N4CCC(C)(C(=O)O)CC4)nc3)cc(C#Cc3cccnc3)c2s1 [Compound 148] here?
**A.** ≤ 0.25 µg/mL

**Q.** And the solubility at 24 h (physchem; Max Solubility)?
**A.** ≥ 800 µg/mL

**Q.** What about the solubility at 24 h (physchem; Solubility (pH 7.4)) of the same molecule?
**A.** ≥ 800 µg/mL

**Q.** And the solubility at 24 h (physchem; Solubility Range)?
**A.** > 800 µg/mL

**Q.** What about the solubility at 24 h (physchem; [5]) of the same molecule?
**A.** > 800 µg/mL

**Q.** And the MIC [2]?
**A.** 0.25 to 1 µg/mL (≈ 0.462 to 1.85 µM)

**Q.** And the MIC [3]?
**A.** ≤ 0.25 µg/mL

**Q.** And the MIC [4]?
**A.** ≤ 0.25 µg/mL

**Q.** Which MIC [1] does the source give for CCNC(=O)Nc1nc2cc(-c3cnc(N4CCC(C)(C(=O)O)CC4)nc3)cc(NC(=O)c3ccccn3)c2s1 [Compound 149, 1-(5-(2-(3-ethylureido)-7-(picolinamido)benzo[d]thiazol-5-yl)pyrimidin-2-yl)-4-methylpiperidine-4-carboxylic acid] here?
**A.** 1 to 16 µg/mL (≈ 1.78 to 28.5 µM)

**Q.** What about the solubility at 24 h (physchem; Max Solubility) of the same molecule?
**A.** ≥ 800 µg/mL

**Q.** What about the solubility at 24 h (physchem; Solubility (pH 7.4)) of the same molecule?
**A.** ≥ 800 µg/mL

**Q.** What about the solubility at 24 h (physchem; Solubility Range) of the same molecule?
**A.** > 800 µg/mL

**Q.** And the solubility at 24 h (physchem; [5])?
**A.** > 800 µg/mL

**Q.** What about the MIC [2] of the same molecule?
**A.** 1 to 16 µg/mL (≈ 1.78 to 28.5 µM)

**Q.** What about the MIC [3] of the same molecule?
**A.** ≤ 0.25 µg/mL

**Q.** And the MIC [4]?
**A.** 0.25 to 1 µg/mL (≈ 0.446 to 1.78 µM)

Source: patent US9181234B2, “Antibacterial compounds” (priority 2010, dated 2015)
